The structures appear in SMILES notation.

The inhibition is the change of the read-out against control, counted positive when it falls.

Common to all, as to test: Large panel kinase profiling
What all share (format): biochemical
What all share (conditions): 1 μM test article, 1 mM ATP

In one assay the target is EIF2AK4/GCN2 (Homo sapiens, UniProt Q9P2K8). In outline:
(§1)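 Activity is measured in real time from the CSox sensor's fluorescence at 485 nm after 360 nm excitation, sampled every minute. Assays run at 30° C. with 1 mM ATP and a single 1 μM compound dose.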

The target in the next assay is T1, EPHA3 (Homo sapiens, UniProt P29320).
T1 sequence (P29320 21-983): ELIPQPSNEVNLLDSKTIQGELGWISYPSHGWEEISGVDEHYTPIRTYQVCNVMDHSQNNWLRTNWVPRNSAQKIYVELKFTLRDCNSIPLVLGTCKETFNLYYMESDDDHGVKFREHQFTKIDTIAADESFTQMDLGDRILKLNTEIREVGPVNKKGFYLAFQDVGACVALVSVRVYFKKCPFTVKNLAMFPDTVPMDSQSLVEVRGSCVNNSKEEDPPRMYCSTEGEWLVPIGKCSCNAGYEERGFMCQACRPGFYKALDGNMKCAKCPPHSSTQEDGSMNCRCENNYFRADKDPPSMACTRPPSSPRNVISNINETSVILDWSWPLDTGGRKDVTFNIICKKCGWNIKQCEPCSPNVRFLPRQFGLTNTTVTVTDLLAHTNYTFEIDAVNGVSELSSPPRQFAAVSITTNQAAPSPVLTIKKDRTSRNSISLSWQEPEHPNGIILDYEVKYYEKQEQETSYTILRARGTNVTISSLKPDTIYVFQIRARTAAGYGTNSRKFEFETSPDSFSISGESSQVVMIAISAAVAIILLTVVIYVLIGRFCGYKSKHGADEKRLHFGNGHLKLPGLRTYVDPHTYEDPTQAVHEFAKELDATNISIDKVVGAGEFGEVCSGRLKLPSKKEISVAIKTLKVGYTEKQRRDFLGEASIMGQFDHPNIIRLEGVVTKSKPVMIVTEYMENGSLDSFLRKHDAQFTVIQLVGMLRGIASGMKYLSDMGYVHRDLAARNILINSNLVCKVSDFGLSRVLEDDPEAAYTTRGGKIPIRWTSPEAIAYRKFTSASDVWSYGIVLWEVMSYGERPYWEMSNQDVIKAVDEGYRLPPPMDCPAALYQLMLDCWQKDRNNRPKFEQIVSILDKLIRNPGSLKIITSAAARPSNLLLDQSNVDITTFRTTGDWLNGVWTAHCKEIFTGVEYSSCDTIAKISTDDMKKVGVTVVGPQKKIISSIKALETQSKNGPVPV
Summed up: as §1

The next assay deals with FER (Homo sapiens, UniProt P16591). In outline: as §1
Chain of FER (P16591 whole entry, species assumed): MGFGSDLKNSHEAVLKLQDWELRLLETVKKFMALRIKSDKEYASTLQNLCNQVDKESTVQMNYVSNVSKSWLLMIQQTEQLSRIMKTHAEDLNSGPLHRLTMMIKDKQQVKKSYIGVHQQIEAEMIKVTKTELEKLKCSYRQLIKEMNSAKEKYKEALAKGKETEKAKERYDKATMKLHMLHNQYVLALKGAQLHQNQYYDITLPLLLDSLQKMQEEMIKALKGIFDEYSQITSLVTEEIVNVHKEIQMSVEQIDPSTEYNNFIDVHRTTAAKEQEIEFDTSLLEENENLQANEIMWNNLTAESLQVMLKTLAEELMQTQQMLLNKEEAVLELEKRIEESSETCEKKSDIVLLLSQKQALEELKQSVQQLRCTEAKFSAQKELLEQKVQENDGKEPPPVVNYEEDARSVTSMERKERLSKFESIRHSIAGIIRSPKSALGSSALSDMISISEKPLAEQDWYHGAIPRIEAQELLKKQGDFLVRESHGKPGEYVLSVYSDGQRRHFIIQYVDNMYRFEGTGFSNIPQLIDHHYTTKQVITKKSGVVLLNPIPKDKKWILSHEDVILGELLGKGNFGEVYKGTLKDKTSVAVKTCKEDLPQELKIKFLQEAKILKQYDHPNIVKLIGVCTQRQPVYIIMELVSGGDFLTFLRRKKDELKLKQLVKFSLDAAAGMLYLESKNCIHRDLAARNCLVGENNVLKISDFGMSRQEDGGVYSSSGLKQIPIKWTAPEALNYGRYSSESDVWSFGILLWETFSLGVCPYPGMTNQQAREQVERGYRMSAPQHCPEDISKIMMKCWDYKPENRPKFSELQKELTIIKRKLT
The next assay addresses T2, HIPK1 (Homo sapiens, UniProt Q86Z02).
T2 construct: AssayQuant Technologies, Inc. (service provider)
In outline:
as §1

Another assay deals with T3, IKBKE/IKKE (Homo sapiens, UniProt Q14164).
T3 construct: AssayQuant Technologies, Inc. (service provider)
T3 sequence (Q14164 1-716): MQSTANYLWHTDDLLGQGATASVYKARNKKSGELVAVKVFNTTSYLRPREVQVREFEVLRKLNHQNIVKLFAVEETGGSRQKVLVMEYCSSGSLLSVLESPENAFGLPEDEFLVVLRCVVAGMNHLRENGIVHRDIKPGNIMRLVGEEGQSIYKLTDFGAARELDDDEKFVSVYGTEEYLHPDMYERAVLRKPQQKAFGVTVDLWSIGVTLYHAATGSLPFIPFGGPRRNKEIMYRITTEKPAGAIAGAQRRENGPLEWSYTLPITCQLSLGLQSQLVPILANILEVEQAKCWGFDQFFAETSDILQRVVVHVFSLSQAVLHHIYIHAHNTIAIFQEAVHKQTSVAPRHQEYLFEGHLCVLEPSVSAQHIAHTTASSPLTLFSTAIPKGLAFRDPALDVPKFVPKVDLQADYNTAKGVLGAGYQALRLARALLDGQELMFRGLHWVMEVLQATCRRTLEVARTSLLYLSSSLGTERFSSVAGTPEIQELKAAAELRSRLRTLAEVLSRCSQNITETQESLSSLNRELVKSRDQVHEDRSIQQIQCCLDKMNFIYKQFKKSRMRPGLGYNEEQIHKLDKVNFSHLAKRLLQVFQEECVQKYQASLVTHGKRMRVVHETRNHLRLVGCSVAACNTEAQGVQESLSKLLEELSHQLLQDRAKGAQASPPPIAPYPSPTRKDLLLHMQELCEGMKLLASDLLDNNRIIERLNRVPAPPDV
In outline:
as §1

For a further assay, the target named is PDGFRA (Homo sapiens, UniProt P16234). In outline: as §1
Another assay addresses PRKCD/CPKCD (Homo sapiens, UniProt Q05655). Summed up: as §1
A further assay addresses T4, YES (Homo sapiens, UniProt P07947).
T4 construct: AssayQuant Technologies, Inc. (contract laboratory that ran the panel)
In outline: as §1

Chain of PRKCD/CPKCD (Q05655 whole entry): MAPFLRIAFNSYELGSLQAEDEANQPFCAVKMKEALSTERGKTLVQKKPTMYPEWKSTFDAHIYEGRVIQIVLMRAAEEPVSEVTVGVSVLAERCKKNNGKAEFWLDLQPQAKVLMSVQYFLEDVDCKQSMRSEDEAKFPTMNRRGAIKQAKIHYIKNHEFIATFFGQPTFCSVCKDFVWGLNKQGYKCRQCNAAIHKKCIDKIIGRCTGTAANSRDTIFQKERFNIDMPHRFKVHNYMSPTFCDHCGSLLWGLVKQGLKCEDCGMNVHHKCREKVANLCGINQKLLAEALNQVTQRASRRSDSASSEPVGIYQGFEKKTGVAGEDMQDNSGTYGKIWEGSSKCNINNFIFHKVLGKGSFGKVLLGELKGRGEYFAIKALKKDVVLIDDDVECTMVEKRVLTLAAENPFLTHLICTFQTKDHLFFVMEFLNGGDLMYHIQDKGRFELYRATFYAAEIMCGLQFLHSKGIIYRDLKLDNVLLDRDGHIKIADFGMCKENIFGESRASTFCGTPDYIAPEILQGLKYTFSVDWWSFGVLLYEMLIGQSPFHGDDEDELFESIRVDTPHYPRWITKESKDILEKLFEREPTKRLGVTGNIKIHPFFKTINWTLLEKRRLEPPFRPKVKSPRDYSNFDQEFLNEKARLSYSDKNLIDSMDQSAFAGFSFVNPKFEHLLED
T4 sequence (P07947 whole entry, species assumed): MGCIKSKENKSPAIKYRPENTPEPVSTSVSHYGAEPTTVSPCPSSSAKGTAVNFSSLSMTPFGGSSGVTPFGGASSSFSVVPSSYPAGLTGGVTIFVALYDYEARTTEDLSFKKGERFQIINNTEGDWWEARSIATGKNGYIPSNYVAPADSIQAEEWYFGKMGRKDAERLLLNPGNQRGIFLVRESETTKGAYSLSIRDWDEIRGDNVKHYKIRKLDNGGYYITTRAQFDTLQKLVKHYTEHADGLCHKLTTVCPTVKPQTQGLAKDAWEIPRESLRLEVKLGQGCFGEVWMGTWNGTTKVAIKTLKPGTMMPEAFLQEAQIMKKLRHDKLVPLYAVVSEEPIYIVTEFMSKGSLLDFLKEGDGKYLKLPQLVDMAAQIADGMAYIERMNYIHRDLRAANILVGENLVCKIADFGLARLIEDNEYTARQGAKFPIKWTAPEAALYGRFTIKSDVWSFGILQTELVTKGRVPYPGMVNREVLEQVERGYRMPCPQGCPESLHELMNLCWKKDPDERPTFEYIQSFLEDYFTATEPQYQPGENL
T2 sequence (Q86Z02 whole entry, species assumed): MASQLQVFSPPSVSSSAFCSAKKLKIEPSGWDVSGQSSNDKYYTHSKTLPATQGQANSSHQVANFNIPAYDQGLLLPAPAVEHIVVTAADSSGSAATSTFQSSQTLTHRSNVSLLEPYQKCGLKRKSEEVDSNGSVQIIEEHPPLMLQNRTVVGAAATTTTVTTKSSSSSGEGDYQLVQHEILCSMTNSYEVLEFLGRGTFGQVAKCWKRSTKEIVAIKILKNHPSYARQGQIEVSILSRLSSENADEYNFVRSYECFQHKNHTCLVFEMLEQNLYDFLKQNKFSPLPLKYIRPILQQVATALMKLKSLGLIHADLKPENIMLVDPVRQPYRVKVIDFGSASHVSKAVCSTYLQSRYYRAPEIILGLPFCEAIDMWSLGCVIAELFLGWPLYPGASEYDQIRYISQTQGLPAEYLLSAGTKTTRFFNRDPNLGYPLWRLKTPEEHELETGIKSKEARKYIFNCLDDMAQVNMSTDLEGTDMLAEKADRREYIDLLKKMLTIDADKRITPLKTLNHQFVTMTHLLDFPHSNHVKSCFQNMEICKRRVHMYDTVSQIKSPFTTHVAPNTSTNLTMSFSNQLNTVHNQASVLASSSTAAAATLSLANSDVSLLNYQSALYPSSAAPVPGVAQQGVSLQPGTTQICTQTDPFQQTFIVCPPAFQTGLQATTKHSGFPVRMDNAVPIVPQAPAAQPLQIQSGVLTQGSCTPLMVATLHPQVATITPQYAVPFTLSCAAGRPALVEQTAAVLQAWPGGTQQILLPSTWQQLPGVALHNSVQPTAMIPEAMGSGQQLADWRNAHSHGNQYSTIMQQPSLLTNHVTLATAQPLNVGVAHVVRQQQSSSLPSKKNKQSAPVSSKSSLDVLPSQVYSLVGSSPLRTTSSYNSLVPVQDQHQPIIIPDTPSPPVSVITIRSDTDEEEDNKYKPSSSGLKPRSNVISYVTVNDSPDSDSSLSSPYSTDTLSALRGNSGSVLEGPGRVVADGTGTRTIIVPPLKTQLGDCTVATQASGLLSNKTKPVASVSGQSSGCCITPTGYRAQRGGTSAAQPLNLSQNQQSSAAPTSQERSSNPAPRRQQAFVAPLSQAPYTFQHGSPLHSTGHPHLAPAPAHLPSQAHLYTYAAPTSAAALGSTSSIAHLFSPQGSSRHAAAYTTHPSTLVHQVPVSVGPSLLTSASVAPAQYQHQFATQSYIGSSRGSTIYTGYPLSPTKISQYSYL
Chain of EIF2AK4/GCN2 (Q9P2K8 whole entry): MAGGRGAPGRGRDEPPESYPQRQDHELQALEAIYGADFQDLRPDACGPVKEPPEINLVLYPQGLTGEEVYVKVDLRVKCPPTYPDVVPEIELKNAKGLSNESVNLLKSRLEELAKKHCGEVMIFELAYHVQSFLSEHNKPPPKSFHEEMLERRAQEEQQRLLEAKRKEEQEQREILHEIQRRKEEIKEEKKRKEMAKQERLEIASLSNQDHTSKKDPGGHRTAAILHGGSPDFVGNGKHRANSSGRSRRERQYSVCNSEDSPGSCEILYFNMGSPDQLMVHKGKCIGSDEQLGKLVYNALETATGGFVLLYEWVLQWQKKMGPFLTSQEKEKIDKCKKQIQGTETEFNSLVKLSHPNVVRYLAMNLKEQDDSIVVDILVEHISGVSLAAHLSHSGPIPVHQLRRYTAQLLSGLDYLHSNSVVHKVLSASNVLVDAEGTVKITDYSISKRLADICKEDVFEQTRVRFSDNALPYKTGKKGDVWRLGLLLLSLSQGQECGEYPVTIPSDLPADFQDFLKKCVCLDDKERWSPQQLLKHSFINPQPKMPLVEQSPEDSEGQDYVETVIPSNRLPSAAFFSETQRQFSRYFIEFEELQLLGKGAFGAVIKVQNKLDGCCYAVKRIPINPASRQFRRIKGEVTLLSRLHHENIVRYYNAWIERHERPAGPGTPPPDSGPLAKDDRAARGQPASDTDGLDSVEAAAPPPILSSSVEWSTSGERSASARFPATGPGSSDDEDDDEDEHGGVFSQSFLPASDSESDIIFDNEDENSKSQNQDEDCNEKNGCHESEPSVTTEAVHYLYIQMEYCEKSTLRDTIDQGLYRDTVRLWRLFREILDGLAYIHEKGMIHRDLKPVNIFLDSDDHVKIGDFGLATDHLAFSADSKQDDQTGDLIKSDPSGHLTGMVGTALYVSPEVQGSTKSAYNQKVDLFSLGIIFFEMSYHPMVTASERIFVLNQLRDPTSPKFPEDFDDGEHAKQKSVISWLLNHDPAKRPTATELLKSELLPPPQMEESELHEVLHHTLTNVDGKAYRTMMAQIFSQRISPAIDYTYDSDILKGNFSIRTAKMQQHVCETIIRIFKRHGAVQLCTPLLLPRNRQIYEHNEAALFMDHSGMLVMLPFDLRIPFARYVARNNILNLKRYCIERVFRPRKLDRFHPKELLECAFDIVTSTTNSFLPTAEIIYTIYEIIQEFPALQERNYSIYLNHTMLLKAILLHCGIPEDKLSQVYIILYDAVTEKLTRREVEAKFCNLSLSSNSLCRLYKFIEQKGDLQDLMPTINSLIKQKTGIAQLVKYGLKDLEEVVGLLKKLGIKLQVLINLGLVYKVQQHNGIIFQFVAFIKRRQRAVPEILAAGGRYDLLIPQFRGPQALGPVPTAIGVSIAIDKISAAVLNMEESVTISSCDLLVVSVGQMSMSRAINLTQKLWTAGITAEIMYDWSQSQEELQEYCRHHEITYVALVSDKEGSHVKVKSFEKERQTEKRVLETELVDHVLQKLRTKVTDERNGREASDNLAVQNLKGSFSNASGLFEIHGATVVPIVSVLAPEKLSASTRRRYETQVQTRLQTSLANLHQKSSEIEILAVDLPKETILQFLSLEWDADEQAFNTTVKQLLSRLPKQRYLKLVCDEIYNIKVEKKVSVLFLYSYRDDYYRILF

As for `C=CC(=O)N1CCCC(c2c(F)cc(C(N)=O)c3[nH]c4c(c23)CCCCC4)C1` (single isomer, unassigned) [Compound 5-6], the inhibition at 1 µM against EIF2AK4/GCN2 was -20.4%; at EPHA3, 0.7%; against FER, 32%; at HIPK1, 6.6%; against IKBKE/IKKE, 3.4%; at PDGFRA, -26.6%. Further, the inhibition at 1 µM is -42.2% against PRKCD/CPKCD and 8.8% against YES.

For the compound `C=CC(=O)N1CCC[C@@H](c2c(F)cc(C(N)=O)c3[nH]c4c(c23)CC2(CC4)CC2)C1` [Compound 6-2, (S)-5-(1-acryloylpiperidin-3-yl)-6-fluoro-1,2,4,9-tetrahydrospiro[carbazole-3,1′-cyclopropane]-8-carboxamide], the inhibition at 1 µM was 25.9% against EIF2AK4/GCN2; 10.1% against EPHA3; 2.1% at FER; 41.1% against HIPK1; -18% at IKBKE/IKKE; 23.9% against PDGFRA. Further, the inhibition at 1 µM is -0.1% on PRKCD/CPKCD and 27% against YES.

In the case of `C=CC(=O)N1CCC[C@@H](c2c(F)cc(C(N)=O)c3[nH]c4c(c23)CCC4)C1` [Compound 10-2, (S)-8-(1-acryloylpiperidin-3-yl)-7-fluoro-1,2,3,4-tetrahydrocyclo-penta[b]indole-5-carboxamide], the inhibition at 1 µM is 29.1% against EIF2AK4/GCN2; 1.6% against EPHA3; 29.3% on FER; 33.6% against HIPK1; -12.8% against IKBKE/IKKE; 2.1% at PDGFRA. Besides, the results for the inhibition at 1 µM at PRKCD/CPKCD and at YES were -0.6% and 23.9%, respectively.

For the origin of these results see patent publication US20220009920A1 (GB005, Inc., priority 2020, published 2022).
